Cn1nnc2c(C(N)=O)ncn2c1=O
solubility (mole fraction)
Settings	273.15 K	278.15 K	283.15 K	288.15 K	293.15 K	298.15 K	303.15 K	308.15 K	313.15 K	318.15 K
in ethanol	6.58e-05	7.89e-05	9.48e-05	0.000115	0.000136	0.00016	0.000188	0.000225	0.000269	0.000313
in ethyl acetate	8.03e-05	9.96e-05	0.00012	0.000144	0.000173	0.000206	0.000237	0.000277	0.000319	0.000371
in isopropanol	2.2e-05	2.69e-05	3.4e-05	4.26e-05	5.17e-05	6.38e-05	7.8e-05	9.41e-05	0.000116	0.000143
in methanol	0.000174	0.000217	0.00027	0.000327	0.00039	0.000459	0.000536	0.000621	0.00072	0.000838
in n-propanol	4.28e-05	5.53e-05	6.99e-05	8.65e-05	0.000107	0.00013	0.000157	0.000188	0.000226	0.000271
